# Reference: paper PMC5566973 (Frontiers in Pharmacology, 2017)
# Like-named read-outs stand apart in the source and are kept apart here.
# How the values were obtained:
# BCRP = assay: Bidirectional transport in MDCK cell monolayers with selective transporter inhibitors or substrates; assay type: in vitro ADME, canine; settings: dog; for efflux ratio at 120 min, 2 μM: read-out: ER
# Protocol: (§1) Caco-2, MDCK and MDCK-MRP2 cells were donated by Prof. Yan Xie and Yueming Ma from Shanghai University of Traditional Chinese Medicine. The cells were grown in culture dishes (Corning® Costar, Cambridge, MA, USA) using DMEM supplemented with 10% FBS, 1% NEAA and 1% penicillin-streptomycin solution. The cells were cultured in 5% CO2 and […] with 90% relative humidity at 37°C. The medium was replaced every other day during incubation. The cells were passaged every 3–4 days between 70 and 80% confluence at a 1:5 split ratio using 0.25% trypsin-EDTA. For the transport experiments, the cells from passages between 30 and 45 were seeded at 1 × 10^5 cells/cm^2 onto permeable polycarbonate inserts (0.45 μm pore size, seeding surface of 0.6 cm^2, Millipore, MA, USA) in 24-well plastic plates. The media in the culture plates were changed every other day for the first week after seeding and were replaced daily afterward. […] The cells were used for the transport experiments 21–28 (Caco-2) or 5–7 (MDCK and MDCK-MRP2) days after seeding, and only monolayers with a TEER-value above 420 Ω cm^2 were used during the studies.
# (§2) The apical (AP) and basolateral (BL) sides are typical of polarized Caco-2, MDCK and MDCK-MRP2 epithelial cells. Before the experiments, the polarized cell monolayers were washed twice with warm HBSS solution and subsequently preincubated (37°C, 30 min). Afterward, HBSS solution on both sides of the cell monolayers was removed using a mini desktop vacuum pump. […] The final DMSO concentration in the HBSS or drug mixture was below 0.5%. The monolayers were incubated at 37°C, and 100 μL samples were taken at 30, 60, 90, and 120 min from the acceptor compartment and immediately replaced with the same volume of prewarmed fresh blank HBSS. TEER measurements for assessing the membrane integrity took place before and after the experiments.
# (§3) The apparent permeability coefficients (Papp) and ER were calculated as Equations (2) and (3): […]
# (§4) where dQ/dt is the steady-state flux, A is the membrane surface area, and C0 is the initial drug concentration in the donor compartment. PappBA is the Papp-value measured in BL to AP direction and PappAB is the Papp-value measured in AP to BL direction. It indicated the involvement of an active transport process when the ER-value is above 1.5 (Hubatsch et al., [2007]).
# MDCK cell monolayers = assay: as above; assay type: in vitro ADME, canine; settings: 2 μM
# Protocol: as §1, §2, §3, §4
# OATs = assay: as above; assay type: in vitro ADME, canine; settings: dog, with cimetidine 0.05 mM (50 μM), + Cimetidine 0.05 mM (OATs)
# Protocol: as §1, §2, §3, §4
# [1] = test system: MDCK-MRP2 cell monolayers; assay: Bidirectional transport in MDCK-MRP2 cell monolayers with MRP2 inhibitors; assay type: in vitro ADME, canine; settings: MDCK-MRP2, 2 μM
# Protocol: as §1, §2, §3, §4
# MRP2 [2] = assay: as above; assay type: in vitro ADME, canine; settings: dog, MDCK-MRP2, 2 μM; for efflux ratio at 120 min, 2 μM: read-out: ER
# Protocol: as §1, §2, §3, §4
# MRP2 [3] = assay: Western blot analysis of MRP2 protein expression in Caco-2 cells; assay type: cell-based, human; settings: 48 h, 1, 2, and 5 μM
# Protocol: The Caco-2 cells were seeded into 6-well plates at a density of 1 × 10^5 cells/mL and cultured for 24 h. […] Protein lysate was collected by centrifugation at 12,000 rpm at 4°C for 10 min, and the total protein content was determined using BCA protein assay kit. Proteins were then mixed with a quarter volume of loading buffer and heated at 100°C for 5 min. Approximately 20 μg of the total protein content was separated by SDS-PAGE through an 8% acrylamide gel and transferred to PVDF membranes. After washing with PBST, the membrane was blocked with 5% fat-free milk in PBST for 1 h at room temperature (RT) and then incubated with anti-MRP2 (1:500) and anti-GAPDH (1:5,000) overnight at 4°C. Afterwards, the membranes were rinsed with PBST and incubated with HRP-conjugated anti-rabbit (1:5,000) secondary antibody for 2 h at RT. After complete washing with PBST, the protein bands were visualized with ECL prime kit (GE Healthcare, NA, UK).
# [4] = Urinary and fecal excretion in rats; assay type: in vivo, Sprague-Dawley rats; settings: after oral harmaline 40.0 mg/kg
# Protocol: Access to water was maintained all the time. Samples including blank urine and feces before dosing, urine and feces from 0 to 24 h, 24 to 48 h, and 48 to 72 h after dosing were collected and stored at −80°C until analysis.
# Urine samples were thawed and an aliquot of 100 μL was processed for detection as described in Section Drug Analysis. Feces were homogenized and then weighed, added 6-folds of acetonitrile, extracted by ultrasonic wave for 1 h and then centrifuged. An aliquot of 100 μL was also processed for detection as described in Section Drug Analysis.
# [5] = parameters: method as in Zhang, 2013; Shi et al., 2014; settings: dogs, oral total alkaloid extracts from P. harmala 140 mg/kg; ref Zhang, 2013; Shi et al., 2014; cited from earlier work
# [6] = with apigenin 0.025 mM (25 μM), + Apigenin 0.025 mM (BCRP)
# [7] = Control (no inhibitor or substrate)
# [8] = with MK571 0.05 mM (50 μM), + MK571 0.05 mM (MRP2)
# [9] = with probenecid 0.2 mM (200 μM), + Probenecid 0.2 mM (MRP2)
smiles,measurement,setting,value
COc1ccc2c3c([nH]c2c1)C(C)=NCC3 [Harmaline],"efflux ratio at 120 min, 2 μM","BCRP; with Ko143 0.01 mM (10 μM), + Ko143 0.01 mM (BCRP)",1.16
same,"Papp B→A at 120 min, 2 μM",BCRP; [6],23.7 ± 1.11 ×10⁻⁶ cm/s
same,"efflux ratio at 120 min, 2 μM",BCRP; [6],1.16
same,Modulatory effect,MDCK cell monolayers; + Apigenin 0.025 mM (BCRP),−
same,PappAB,MDCK cell monolayers; + Apigenin 0.025 mM (BCRP),20.44 ± 2.19 1 × 10^−6 cm/s
same,Modulatory effect,MDCK cell monolayers; + Cimetidine 0.05 mM (OATs),−
same,Modulatory effect,MDCK cell monolayers; + ES 0.05 mM (OATPs),−
same,PappBA,MDCK cell monolayers; + ES 0.05 mM (OATPs),20.89 ± 0.79 1 × 10^−6 cm/s
same,Modulatory effect,MDCK cell monolayers; + Gly-Sar 10 mM (PEPT1),−
same,Modulatory effect,MDCK cell monolayers; + Ko143 0.01 mM (BCRP),−
same,PappAB,MDCK cell monolayers; + Ko143 0.01 mM (BCRP),20.08 ± 0.41 1 × 10^−6 cm/s
same,PappBA,MDCK cell monolayers; + Ko143 0.01 mM (BCRP),23.37 ± 0.73 1 × 10^−6 cm/s
same,Modulatory effect,MDCK cell monolayers; + MK571 0.05 mM (MRP2),−
same,PappAB,MDCK cell monolayers; + MK571 0.05 mM (MRP2),19.66 ± 0.65 1 × 10^−6 cm/s
same,PappBA,MDCK cell monolayers; + MK571 0.05 mM (MRP2),22.57 ± 0.14 1 × 10^−6 cm/s
same,Modulatory effect,MDCK cell monolayers; + NaN3 10 mM (ATP),+
same,PappAB,MDCK cell monolayers; + NaN3 10 mM (ATP),16.22 ± 0.84^* 1 × 10^−6 cm/s
same,PappBA,MDCK cell monolayers; + NaN3 10 mM (ATP),22.78 ± 1.65 1 × 10^−6 cm/s
same,Modulatory effect,MDCK cell monolayers; + Phloretin 0.3 mM (MCTs),−
same,PappAB,MDCK cell monolayers; + Phloretin 0.3 mM (MCTs),20.34 ± 0.71 1 × 10^−6 cm/s
same,PappAB,MDCK cell monolayers; + Phloridzin 0.5 mM (SGLT1),15.96 ± 0.96^* 1 × 10^−6 cm/s
same,PappBA,MDCK cell monolayers; + Phloridzin 0.5 mM (SGLT1),20.59 ± 1.19 1 × 10^−6 cm/s
same,Modulatory effect,MDCK cell monolayers; + Probenecid 0.2 mM (MRP2),−
same,PappAB,MDCK cell monolayers; + Probenecid 0.2 mM (MRP2),21.01 ± 2.16 1 × 10^−6 cm/s
same,PappBA,MDCK cell monolayers; + Probenecid 0.2 mM (MRP2),21.86 ± 1.21 1 × 10^−6 cm/s
same,Modulatory effect,MDCK cell monolayers; + Quinidine 0.1 mM (MDR1),−
same,Modulatory effect,MDCK cell monolayers; + Sodium vanadate 0.05 mM (Na^+),+
same,Modulatory effect,MDCK cell monolayers; + TEA 5 mM (OCTs/OCTNs),+
same,Modulatory effect,MDCK cell monolayers; + Verapamil 0.1 mM (MDR1),−
same,PappAB,MDCK cell monolayers; + Verapamil 0.1 mM (MDR1),20.96 ± 1.30 1 × 10^−6 cm/s
same,PappAB,MDCK cell monolayers; [7],20.36 ± 1.82 1 × 10^−6 cm/s
same,PappBA,MDCK cell monolayers; [7],21.03 ± 2.11 1 × 10^−6 cm/s
same,"Papp A→B at 120 min, 2 μM",OATs,19.2 ± 1.29 ×10⁻⁶ cm/s
same,"Papp B→A at 120 min, 2 μM",OATs,19.2 ± 1.33 ×10⁻⁶ cm/s
same,"efflux ratio at 120 min, 2 μM",OATs; read-out: ER,1
same,Modulatory effect,[1]; + MK571 0.05 mM (MRP2),−
same,Modulatory effect,[1]; + Probenecid 0.2 mM (MRP2),−
same,"Papp A→B at 120 min, 2 μM",MRP2 [2]; [8],31.8 ± 1.37 ×10⁻⁶ cm/s
same,"Papp B→A at 120 min, 2 μM",MRP2 [2]; [8],40.9 ± 5.48 ×10⁻⁶ cm/s
same,"efflux ratio at 120 min, 2 μM",MRP2 [2]; [8],1.34
same,"Papp A→B at 120 min, 2 μM",MRP2 [2]; [9],32.9 ± 2.23 ×10⁻⁶ cm/s
same,"Papp B→A at 120 min, 2 μM",MRP2 [2]; [9],41.9 ± 5.58 ×10⁻⁶ cm/s
same,"efflux ratio at 120 min, 2 μM",MRP2 [2]; [9],1.28
same,"Papp A→B at 120 min, 2 μM",MRP2 [2]; Control (no inhibitor),24.3 ± 2.72 ×10⁻⁶ cm/s
same,"Papp B→A at 120 min, 2 μM",MRP2 [2]; Control (no inhibitor),32.4 ± 3.81 ×10⁻⁶ cm/s
same,"efflux ratio at 120 min, 2 μM",MRP2 [2]; Control (no inhibitor),1.33
same,effect on the expression of MRP2,MRP2 [3],no effect
same,Cumulative excretion in feces (%) of the analyte,[4]; 24 h,0.14 ± 0.10%
same,Cumulative excretion in urine (%) of the analyte,[4]; 24 h,4.00 ± 4.36%
same,Cumulative excretion in feces (%) of the analyte,[4]; 48 h,0.19 ± 0.12%
same,Cumulative excretion in urine (%) of the analyte,[4]; 48 h,4.71 ± 4.20%
same,Cumulative excretion in feces (%) of the analyte,[4]; 72 h,0.19 ± 0.12%
same,Cumulative excretion in urine (%) of the analyte,[4]; 72 h,4.85 ± 4.17%
same,"Cumulative excretion of the analyte, SUM of urine and feces",[4]; within 72 h,5.05 ± 4.12%
same,F-value (absolute bioavailability),[5],24.99%
